Reference: patent US12091404B2 (Gilead Sciences, Inc., priority 2021, dated 2024)

Target: T1, GLP-1R (Homo sapiens, UniProt P43220)
Assay: GLP-1R Activation - cAMP Assay 1
Type: cell-based
Conditions: cAMP increase in CHO cells stably expressing GLP-1R; 10-point dose response, 30 minutes incubation at 37° C.
Experimental: GLP-1R Activation—cAMP Assay 1
GLP-1R activation by a compound of the present disclosure was quantified by measuring cAMP increase in CHO cells stably expressing GLP-1R (MultiSpan product #C1267-1a). The cells were harvested and plated in growth medium (DMEM/F-12 (Corning product #10-090-CV) supplemented with 10% FBS (HyClone product #SH30071-03), penicillin/streptomycin (Corning product #30-002CI) and 10 µg/ml puromycin (Gibco product #A11138-03)) at 1,000 cells/well in a 384-well plate (Greiner product #781080). The cells were then incubated overnight at 37° C., 5% CO2. The next day, the medium was removed and the cells were washed with DPBS (Corning product #21-031-CM) before adding the assay medium (HBSS, Corning product #21-023-CV) with 20 mM Hepes (Gibco product #15630-080) and 0. 1% BSA (Rockland Immunochemicals product #BSA-1000)). Following the medium change, the cells were incubated for 1 hour at 37° C., 5% CO2. The tested GLP-1 compound was added to the cells in a 10-point dose response followed by a 30 minutes incubation at 37° C., 5% CO2. cAMP concentration increase was then detected using Cisbio's cAMP Gs Dynamic Kit (product #62AM4PEC) according to the manufacturer's protocol. The response was plotted against the log of the agonist concentration and fitted to a sigmoidal equation to determine the EC50.

T1 sequence (P43220 24-463): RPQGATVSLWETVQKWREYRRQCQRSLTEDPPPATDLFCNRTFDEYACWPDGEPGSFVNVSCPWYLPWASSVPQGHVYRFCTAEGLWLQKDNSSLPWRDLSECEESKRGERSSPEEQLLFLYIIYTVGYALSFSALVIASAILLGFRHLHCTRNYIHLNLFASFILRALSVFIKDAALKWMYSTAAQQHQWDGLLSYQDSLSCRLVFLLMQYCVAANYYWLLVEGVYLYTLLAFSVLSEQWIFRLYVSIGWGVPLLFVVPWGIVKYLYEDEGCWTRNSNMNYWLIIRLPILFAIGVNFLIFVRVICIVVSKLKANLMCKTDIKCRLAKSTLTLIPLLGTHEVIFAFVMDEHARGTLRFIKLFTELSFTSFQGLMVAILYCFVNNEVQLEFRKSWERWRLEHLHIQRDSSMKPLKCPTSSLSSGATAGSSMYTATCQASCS

EC50 | SMILES
197 nM | COCCn1c(CN2CCC(c3cccc(OCc4csc5ccccc45)n3)CC2)nc2ccc(C(=O)O)cc21 [Example 13, 2-((4-(6-(benzo[b]thiophen-3-ylmethoxy)pyridin-2-yl)piperidin-1-yl)methyl)-1-(2-methoxyethyl)-1H-benzo]
869 nM | COCCn1c(CN2CCC(c3cccc(OCc4nccs4)n3)CC2)nc2ccc(C(=O)O)cc21 [Example 18, 1-(2-methoxyethyl)-2-((4-(6-(thiazol-2-ylmethoxy)pyridin-2-yl)piperidin-1-yl)methyl)-1H-benzo[d]imidazole-6-carboxylic acid]
5900 nM | COCCn1c(CN2CCC(c3cccc(OCc4cscn4)n3)CC2)nc2ccc(C(=O)O)cc21 [Example 19, 1-(2-methoxyethyl)-2-((4-(6-(thiazol-4-ylmethoxy)pyridin-2-yl)piperidin-1-yl)methyl)-1H-benzo[d]imidazole-6-carboxylic acid]
4350 nM | COCCn1c(CN2CCC(c3cccc(OCc4cnn(C)n4)n3)CC2)nc2ccc(C(=O)O)cc21 [Example 20, 1-(2-methoxyethyl)-2-((4-(6-((2-methyl-2H-1,2,3-triazol-4-yl)methoxy)pyridin-2-yl)piperidin-1-yl)methyl)-1H-benzo[d]imidazole-6-carboxylic acid]

The next lines start with the molecule.

SMILES | EC50
COCCn1c(CN2CCC(c3cccc(OCc4sc(C#N)cc4F)n3)CC2)nc2ccc(C(=O)O)cc21 [Example 1, 2-((4-(6-((5-cyano-3-fluorothiophen-2-yl)methoxy)pyridin-2-yl)piperidin-1-yl)methyl)-1-(2-methoxyethyl)-1H-benzo[d]imidazole-6-carboxylic acid] | 166 nM
COCCn1c(CN2CCC(c3cccc(OCc4ccc(C#N)s4)n3)CC2)nc2ccc(C(=O)O)cc21 [Example 2, 2-((4-(6-((5-cyanothiophen-2-yl)methoxy)pyridin-2-yl)piperidin-1-yl)methyl)-1-(2-methoxyethyl)-1H-benzo[d]imidazole-6-carboxylic acid] | 47.3 nM
COCCn1c(CN2CCC(c3cccc(OCc4cnc(Cl)s4)n3)CC2)nc2ccc(C(=O)O)cc21 [Example 3, 2-[[4-[6-[(2-chlorothiazol-5-yl)methoxy]-2-pyridyl]-1-piperidyl]methyl]-3-(2-methoxyethyl)benzimidazole-5-carboxylic acid] | 307 nM
COCCn1c(CN2CCC(c3cccc(OCc4nnc(Cl)s4)n3)CC2)nc2ccc(C(=O)O)cc21 [Example 4] | 294 nM
COCCn1c(CN2CCC(c3cccc(OCc4csc5cc(Cl)ccc45)n3)CC2)nc2ccc(C(=O)O)cc21 [Example 11, 2-((4-(6-((6-chlorobenzo[b]thiophen-3-yl)methoxy)pyridin-2-yl)piperidin-1-yl)methyl)-1-(2-methoxyethyl)-1H-benzo[d]imidazole-6-carboxylic acid] | 156 nM
COCCn1c(CN2CCC(c3cccc(OCc4ccsc4)n3)CC2)nc2ccc(C(=O)O)cc21 [Example 12, 1-(2-methoxyethyl)-2-((4-(6-(thiophen-3-ylmethoxy)pyridin-2-yl)piperidin-1-yl)methyl)-1H-benzo[d]imidazole-6-carboxylic acid] | 831 nM

Target: T1, GLP-1R
Assay: GLP-1R Activation - cAMP Assay 2
Type: cell-based
Conditions: not given
Experimental: GLP-1R Activation—cAMP Assay 2 GLP-1R activation by small molecule agonists is quantified by measuring cAMP increase in CHO cells stably expressing GLP-1R (MultiSpan product #C1267-1a). 50 nL of agonists are pre-spotted in a 10-point dose response onto 384-well plate (Corning product #CL3826) using the Labcyte Echo System. […] The cells are then incubated for 30 minutes at 37° C., 5% CO2. cAMP concentration increase is then detected using Cisbio's cAMP Gs Dynamic Kit (product #62AM4PEC) according to the manufacturer's protocol. The response is plotted against the log of the agonist concentration and fitted to a sigmoidal equation to determine the EC50.

EC50 | SMILES
0.9 nM | N#Cc1ccc(COc2cccc(C3CCN(Cc4nc5ccc(C(=O)O)cc5n4C[C@@H]4CCO4)CC3)n2)s1 [Example 6, (S)-2-((4-(6-((5-cyanothiophen-2-yl)methoxy)pyridin-2-yl)piperidin-1-yl)methyl)-1-(oxetan-2-ylmethyl)-1H-benzo[d]imidazole-6-carboxylic acid]

Same assay, conditions: cAMP increase in CHO cells stably expressing GLP-1R; pre-spotted agonists, assay buffer or 100% Human Plasma (not stated which), 30 minutes at 37° C.; read-out: GLP-1R Activation- Assay 2 EC50 (nm)

EC50 | SMILES
1.8 nM | O=C(O)c1ccc2nc(CN3CCC(c4cccc(OCc5ncc(C(F)(F)F)s5)n4)CC3)n(C[C@@H]3CCO3)c2c1 [Example 14, (S)-1-(oxetan-2-ylmethyl)-2-((4-(6-((5-(trifluoromethyl)thiazol-2-yl)methoxy)pyridin-2-yl)piperidin-1-yl)methyl)-1H-benzo[d]imidazole-6-carboxylic acid]
5.2 nM | O=C(O)c1ccc2nc(CN3CCC(c4cccc(OCc5nc(C(F)(F)F)cs5)n4)CC3)n(C[C@@H]3CCO3)c2c1 [Example 15, (S)-1-(oxetan-2-ylmethyl)-2-((4-(6-((4-(trifluoromethyl)thiazol-2-yl)methoxy)pyridin-2-yl)piperidin-1-yl)methyl)-1H-benzo[d]imidazole-6-carboxylic acid]
4.1 nM | O=C(O)c1ccc2nc(CN3CCC(c4cccc(OCc5cc(C(F)(F)F)cs5)n4)CC3)n(C[C@@H]3CCO3)c2c1 [Example 16, (S)-1-(oxetan-2-ylmethyl)-2-((4-(6-((4-(trifluoromethyl)thiophen-2-yl)methoxy)pyridin-2-yl)piperidin-1-yl)methyl)-1H-benzo[d]imidazole-6-carboxylic acid]
24.1 nM | N#Cc1cnc(COc2cccc(C3CCN(Cc4nc5ccc(C(=O)O)cc5n4C[C@@H]4CCO4)CC3)n2)s1 [Example 17, (S)-2-((4-(6-((5-cyanothiazol-2-yl)methoxy)pyridin-2-yl)piperidin-1-yl)methyl)-1-(oxetan-2-ylmethyl)-1H-benzo[d]imidazole-6-carboxylic acid]

The next lines start with the molecule.

SMILES | EC50
Cn1ccc(COc2cccc(C3CCN(Cc4nc5ccc(C(=O)O)cc5n4C[C@@H]4CCO4)CC3)n2)n1 [Example 5, (S)-2-((4-(6-((1-methyl-1H-pyrazol-3-yl)methoxy)pyridin-2-yl)piperidin-1-yl)methyl)-1-(oxetan-2-ylmethyl)-1H-benzo[d]imidazole-6-carboxylic acid] | > 100 nM
NC(=O)c1ccc(COc2cccc(C3CCN(Cc4nc5ccc(C(=O)O)cc5n4C[C@@H]4CCO4)CC3)n2)s1 [Example 7, (S)-2-((4-(6-((5-carbamoylthiophen-2-yl)methoxy)pyridin-2-yl)piperidin-1-yl)methyl)-1-(oxetan-2-ylmethyl)-1H-benzo[d]imidazole-6-carboxylic acid] | 36.5 nM
O=C(O)c1ccc2nc(CN3CCC(c4cccc(OCc5ccn(C(F)F)n5)n4)CC3)n(C[C@@H]3CCO3)c2c1 [Example 8, (S)-2-((4-(6-((1-(difluoromethyl)-1H-pyrazol-3-yl)methoxy)pyridin-2-yl)piperidin-1-yl)methyl)-1-(oxetan-2-ylmethyl)-1H-benzo[d]imidazole-6-carboxylic acid] | 21.5 nM
Cn1cc(C#Cc2ccc(COc3cccc(C4CCN(Cc5nc6ccc(C(=O)O)cc6n5C[C@@H]5CCO5)CC4)n3)s2)cn1 [Example 9, 2-[[4-[6-[[5-[2-(1-methylpyrazol-4-yl)ethynyl]-2-thienyl]methoxy]-2-pyridyl]-1-piperidyl]methyl]-3-[[(2S)-oxetan-2-yl]methyl]benzimidazole-5-carboxylic acid] | 3.3 nM
O=C(O)c1ccc2nc(Cc3cc(F)c(-c4cccc(OCc5cc(C(F)(F)F)cs5)n4)cc3F)n(C[C@@H]3CCO3)c2c1 [Example 10, 2-[[2,5-difluoro-4-[6-[[4-(trifluoromethyl)-2-thienyl]methoxy]-2-pyridyl]phenyl]methyl]-3-[[(2S)-oxetan-2-yl]methyl]benzimidazole-5-carboxylic acid] | 0.4 nM
